Source: patent US20260083851A1 (AVILAR THERAPEUTICS, INC., priority 2022, published 2026)

biological target: T1, ASGP receptor (biotinylated ASGPR) (Homo sapiens, UniProt P07306); assay type: binding; conditions: SPR, Biacore 8K, 25° C.; Table 1A; read-out: ASGPR KD
T1 construct: biotin (biotinylated)
T1 sequence (P07306 1-291): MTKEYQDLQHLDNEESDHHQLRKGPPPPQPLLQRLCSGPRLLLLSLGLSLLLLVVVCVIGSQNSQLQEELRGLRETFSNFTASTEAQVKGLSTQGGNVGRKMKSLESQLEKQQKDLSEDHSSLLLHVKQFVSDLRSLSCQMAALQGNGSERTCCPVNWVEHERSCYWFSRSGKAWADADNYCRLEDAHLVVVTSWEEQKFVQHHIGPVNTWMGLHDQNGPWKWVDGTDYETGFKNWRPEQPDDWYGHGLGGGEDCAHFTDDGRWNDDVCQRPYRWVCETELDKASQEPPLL

Row | Kd | Structure (SMILES)
1 | < 10 µM | O=C(NC[C@H]1OC[C@H](Nc2cncc(C(F)(F)F)n2)[C@@H](O)[C@H]1O)c1cnc2[nH]cnc2c1 [A79, N-(((2R,3R,4R,5S)-3,4-dihydroxy-5-((6-(trifluoromethyl)pyrazin-2-yl)amino)tetrahydro-2H-pyran-2-yl)methyl)-3H-imidazo[4,5-b]pyridine-6-carboxamide]
2 | < 10 µM | O=C(O)c1ccc(S(=O)(=O)NC[C@H]2OC[C@H](Nc3cncc(C(F)(F)F)n3)[C@@H](O)[C@H]2O)cc1 [A111, 4-(N-(((2R,3R,4R,5S)-3,4-dihydroxy-5-((6-(trifluoromethyl)pyrazin-2-yl)amino)tetrahydro-2H-pyran-2-yl)methyl)sulfamoyl)benzoic acid]
3 | < 10 µM | O=C(NC[C@H]1OC[C@H](Nc2cncc(C(F)(F)F)n2)[C@@H](O)[C@H]1O)C12CC3CC(CC(C3)C1)C2 [A15, (1S,3S)—N-(((2R,3R,4R,5S)-3,4-dihydroxy-5-((6-(trifluoromethyl)pyrazin-2-yl)amino)tetrahydro-2H-pyran-2-yl)methyl)adamantane-1-carboxamide]
4 | < 10 µM | [N-]=[N+]=NCCCCCC(=O)NC(COCCC(=O)NCCOCCOCCOCCOC[C@H]1OC[C@H](Nc2cncc(C(F)(F)F)n2)[C@@H](O)[C@H]1O)(COCCC(=O)NCCOCCOCCOCCOC[C@H]1OC[C@H](Nc2cncc(C(F)(F)F)n2)[C@@H](O)[C@H]1O)COCCC(=O)NCCOCCOCCOCCOC[C@H]1OC[C@H](Nc2cncc(C(F)(F)F)n2)[C@@H](O)[C@H]1O [A87, 3,3′-((2-(6-azidohexanamido)-2-(1-((2R,3R,4R,5S)-3,4-dihydroxy-5-((6-(trifluoromethyl)pyrazin-2-yl)amino)tetrahydro-2H-pyran-2-yl)-15-oxo-2,5,8,11,18-pentaoxa-14-azanonadecan-19-yl)propane-1,3-diyl)bis(oxy))bis(N-(1-((2R,3R,4R,5S)-3,4-dihydroxy-5-((6-(trifluoromethyl)pyrazin-2-yl)amino)tetrahydro-2H-pyran-2-yl)-2,5,8,11-tetraoxatridecan-13-yl)propanamide)]

same assay, conditions: SPR, Biacore 8K, 25° C.; Table 1C, numeric bound; read-out: ASGPR KD

Row | Kd | Structure (SMILES)
5 | > 30 µM | OC[C@H]1OC[C@H](Nc2ncc3cn[nH]c3n2)[C@@H](O)[C@H]1O [A183, (2R,3R,4R,5S)-5-((1H-pyrazolo[3,4-d]pyrimidin-6-yl)amino)-2-(hydroxymethyl)tetrahydro-2H-pyran-3,4-diol]

same assay, conditions: SPR, Biacore 8K, 25° C.; Table 1C; read-out: ASGPR KD

Row | Kd | Structure (SMILES)
6 | < 10 µM | O=C(O)COCCOCC(=O)NC[C@@]12CO[C@@H](O1)[C@H](Nc1cncc(C(F)(F)F)n1)[C@@H](O)[C@H]2O [A305]
7 | < 10 µM | O=C(O)c1cnc(OC[C@H]2OC[C@H](Nc3cncc(C(F)(F)F)n3)[C@@H](O)[C@H]2O)nc1 [A194, 2-(((2R,3R,4R,5S)-3,4-dihydroxy-5-((6-(trifluoromethyl)pyrazin-2-yl)amino)tetrahydro-2H-pyran-2-yl)methoxy)pyrimidine-5-carboxylic acid]
8 | < 10 µM | O=C(O)c1ccc(OC[C@H]2OC[C@H](Nc3nccc(C(F)(F)F)n3)[C@@H](O)[C@H]2O)nn1 [A325]
9 | < 10 µM | NC[C@H]1OC[C@H](Oc2cccc(C(F)(F)F)n2)[C@@H](O)[C@H]1O [A192, (2R,3R,4S,5S)-2-(aminomethyl)-5-((6-(trifluoromethyl)pyridin-2-yl)oxy)tetrahydro-2H-pyran-3,4-diol]
10 | < 10 µM | O=C(O)COCCOCC(=O)NC[C@H]1OC[C@H](Oc2cccc(C(F)(F)F)n2)[C@@H](O)[C@H]1O [A298]

same assay, conditions: SPR, Biacore 8K, 25° C.; Table 1D; read-out: ASGPR KD

Row | Kd | Structure (SMILES)
11 | < 10 µM | O[C@@H]1[C@@H](Oc2cccc(C(F)(F)F)n2)CN(c2ccc(C(F)(F)F)cn2)C[C@@H]1O [A427]
12 | < 10 µM | O=C(OCc1ccccc1)N1CCC(c2cnc(OC[C@H]3OC[C@H](Nc4cncc(C(F)(F)F)n4)[C@@H](O)[C@H]3O)cn2)CC1 [A409]

same assay, conditions: SPR, Biacore 8K, 25° C.; Table 1E; read-out: ASGPR KD

Row | Kd | Structure (SMILES)
13 | < 10 µM | C[C@H]1O[C@H](C2=CC3C(C2=O)[C@@H]2CC[C@H]3C2)[C@H](Oc2cccc(C(F)(F)F)n2)[C@@H](O)[C@H]1O (stereo partly drawn) [A435A]
14 | < 10 µM | C[C@H]1O[C@H](COc2ccncn2)[C@H](Oc2cccc(C(F)(F)F)n2)[C@@H](O)[C@H]1O [A446]
15 | < 10 µM | C[C@H]1O[C@H](COc2cccnn2)[C@H](Oc2cccc(C(F)(F)F)n2)[C@@H](O)[C@H]1O [A441]
